As usually defined, the MIC is the lowest concentration that inhibits growth of the organism. A lower MIC goes with inhibition by little substance. By Ki is commonly meant the equilibrium dissociation constant of an inhibitor or competing ligand from its target. A higher Ki goes with a looser hold on the target.

Molecules are shown by their SMILES. Converted amounts (≈) assume the structure as drawn. Bounds are passed on as bounds.

One assay has as its system Streptococcus equinus. In words: Minimum inhibitory activity against Streptococcus bovis A-5169. The class given is functional.
Another assay has as its system Enterococcus faecium. In words: Minimum inhibitory activity against Enterococcus faecium ATCC 8043. The class given is functional.
Another assay deals with Streptococcus agalactiae. In words: Minimum inhibitory activity against Streptococcus agalactiae CMX 508. The class given is functional.
In the next assay the test system is Staphylococcus aureus. In words: Minimum inhibitory activity against Staphylococcus aureus ATCC 6538P. The class given is functional.
The subject of assay [1] is Staphylococcus epidermidis. Put plainly: Minimum inhibitory activity against Staphylococcus epidermidis 3519. Type of assay: functional.
Another assay deals with Streptococcus pyogenes. Put plainly: Minimum inhibitory activity against Streptococcus pyogenes EES61. The class given is functional.
The next assay concerns Micrococcus luteus. In words: Minimum inhibitory activity against Micrococcus luteus ATCC 9341. Type of assay: functional.
For assay [2], the target named is T1, Gonadotropin-releasing hormone receptor (Homo sapiens, UniProt P30968).
T1 sequence (P30968 whole entry): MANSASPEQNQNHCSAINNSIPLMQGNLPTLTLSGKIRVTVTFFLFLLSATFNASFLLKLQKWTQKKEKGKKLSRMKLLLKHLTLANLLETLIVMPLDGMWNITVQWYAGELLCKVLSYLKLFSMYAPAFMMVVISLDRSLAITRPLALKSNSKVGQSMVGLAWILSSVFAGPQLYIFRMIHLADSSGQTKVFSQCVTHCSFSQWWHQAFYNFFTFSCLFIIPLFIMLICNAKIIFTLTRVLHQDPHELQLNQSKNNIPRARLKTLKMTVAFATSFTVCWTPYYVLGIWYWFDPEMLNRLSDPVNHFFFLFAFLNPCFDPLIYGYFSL
In words: Binding affinity against human luteinizing releasing hormone receptor cloned in CHO cells. The class given is cell-based.

On to `CC[C@H]1OC(=O)[C@H](C)[C@@H](OC2C[C@@](C)(OC)[C@@H](O)[C@H](C)O2)[C@H](C)[C@@H](OC2O[C@H](C)C[C@H](N(C)C(C)C)[C@H]2O)[C@@](C)(OC)C[C@@H](C)C(=O)[C@H](C)[C@H]2N(CCc3ccc(Cl)cc3)C(=O)O[C@]12C` (some centres undefined), for which the MIC in the assay on Streptococcus equinus came to 0.2 µg/mL (≈ 0.213 µM); in the assay on Enterococcus faecium it was 0.2 µg/mL (≈ 0.213 µM); with Streptococcus agalactiae, 0.02 µg/mL (≈ 0.0213 µM); against Staphylococcus aureus, 1.56 µg/mL (≈ 1.66 µM); in assay [1], 1.56 µg/mL (≈ 1.66 µM).

In the case of `CC[C@H]1OC(=O)[C@H](C)[C@@H](OC(=O)N2C(=O)OC[C@@H]2C)[C@H](C)[C@@H](OC2O[C@H](C)C[C@H](N(C)CC3CC3)[C@H]2O)[C@@](C)(OC)C[C@@H](C)C(=O)[C@H](C)[C@H]2N(CCc3ccc(F)c(Cl)c3)C(=O)O[C@]12C` (some centres undefined), the MIC in the assay with Streptococcus equinus was 0.39 µg/mL (≈ 0.416 µM); with Enterococcus faecium it was 1.56 µg/mL (≈ 1.66 µM); against Streptococcus agalactiae, 0.39 µg/mL (≈ 0.416 µM); against Staphylococcus aureus, 100 µg/mL (≈ 107 µM); in the assay on Streptococcus pyogenes, 0.39 µg/mL (≈ 0.416 µM); against Micrococcus luteus, 1.56 µg/mL (≈ 1.66 µM). For the same molecule, 50 µg/mL (≈ 53.3 µM) was the least that counted as inhibitory in assay [1] (MIC).

Take `CC[C@H]1OC(=O)[C@H](C)[C@@H](OC2C[C@@](C)(OC)[C@@H](O)[C@H](C)O2)[C@H](C)[C@@H](OC2O[C@H](C)C[C@H](N(CC3CC3)CC3CC3)[C@H]2O)[C@@](C)(OC)C[C@@H](C)C(=O)[C@H](C)[C@H]2N(CCc3ccc(F)c(Cl)c3)C(=O)O[C@]12C` (some centres undefined): the minimum inhibitory concentration (MIC) in the assay with Streptococcus equinus is 25 µg/mL (≈ 24.8 µM); against Enterococcus faecium it was 25 µg/mL (≈ 24.8 µM); in the assay on Streptococcus agalactiae it was 50 µg/mL (≈ 49.5 µM); against Staphylococcus aureus, > 100 µg/mL; in the assay on Streptococcus pyogenes it was 25 µg/mL (≈ 24.8 µM); against Micrococcus luteus, 25 µg/mL (≈ 24.8 µM). Also, the minimal inhibitory concentration (MIC) in assay [1] is > 100 µg/mL. The same molecule showed a Ki in assay [2] of 0.851 nM.

Turning to `CC[C@H]1OC(=O)[C@H](C)[C@@H](OC2C[C@@](C)(OC)[C@@H](O)[C@H](C)O2)[C@H](C)[C@@H](OC2O[C@H](C)C[C@H](N(C)C3CCCC3)[C@H]2O)[C@@](C)(OC)C[C@@H](C)C(=O)[C@H](C)[C@H]2N(CCc3ccc(Cl)cc3)C(=O)O[C@]12C` (some centres undefined), the MIC against Streptococcus equinus is 0.78 µg/mL (≈ 0.808 µM); in the assay on Enterococcus faecium, 1.56 µg/mL (≈ 1.62 µM); in the assay with Streptococcus agalactiae it was 0.78 µg/mL (≈ 0.808 µM); with Staphylococcus aureus it was 25 µg/mL (≈ 25.9 µM); with Streptococcus pyogenes, 0.78 µg/mL (≈ 0.808 µM); in the assay with Micrococcus luteus it was 1.56 µg/mL (≈ 1.62 µM). In assay [1], this molecule displayed an MIC of 50 µg/mL (≈ 51.8 µM). This molecule also had an inhibition constant Ki in assay [2] of 7.59 nM.

As for `CC[C@H]1OC(=O)[C@H](C)[C@@H](OC2C[C@@](C)(OC)[C@@H](O)[C@H](C)O2)[C@H](C)[C@@H](OC2O[C@H](C)C[C@H](N(C)C3CCCC3)[C@H]2O)[C@@](C)(OC)C[C@@H](C)C(=O)[C@H](C)[C@H]2N(CCc3ccc(Cl)c(Cl)c3)C(=O)O[C@]12C` (some centres undefined), the MIC in the assay on Streptococcus equinus is 3.1 µg/mL (≈ 3.1 µM); in the assay on Enterococcus faecium, 3.1 µg/mL (≈ 3.1 µM); against Streptococcus agalactiae it was 3.1 µg/mL (≈ 3.1 µM); in the assay with Staphylococcus aureus it was > 100 µg/mL; against Streptococcus pyogenes, 3.1 µg/mL (≈ 3.1 µM); in the assay with Micrococcus luteus it was 3.1 µg/mL (≈ 3.1 µM). The MIC in assay [1] is > 100 µg/mL. In assay [2], the affinity, expressed as Ki, was 1.51 nM.

Regarding `CC[C@H]1OC(=O)[C@H](C)[C@@H](OC2C[C@@](C)(OC)[C@@H](O)[C@H](C)O2)[C@H](C)[C@@H](OC2O[C@H](C)C[C@H](N(C)C)[C@H]2O)[C@@](C)(OC)C[C@@H](C)C(=O)[C@H](C)[C@H]2N(CCc3ccc(Cl)cc3)C(=O)O[C@]12C` (some centres undefined), the minimal inhibitory concentration (MIC) in the assay on Streptococcus equinus stood at 0.2 µg/mL (≈ 0.219 µM); in the assay with Enterococcus faecium, 0.1 µg/mL (≈ 0.11 µM); with Streptococcus agalactiae it was 0.2 µg/mL (≈ 0.219 µM); with Staphylococcus aureus, 0.39 µg/mL (≈ 0.428 µM); in the assay on Micrococcus luteus, 0.05 µg/mL (≈ 0.0549 µM); in assay [1] it was 0.39 µg/mL (≈ 0.428 µM). In addition, the inhibition constant (Ki) in assay [2] is 191 nM.

Regarding `CC[C@H]1OC(=O)[C@H](C)[C@@H](O)[C@H](C)[C@@H](OC2O[C@H](C)C[C@H](N(C)C)[C@H]2O)[C@@](C)(OC)C[C@@H](C)C(=O)[C@H](C)[C@H]2N(CCc3ccc(Cl)cc3)C(=O)O[C@]12C` (some centres undefined), the MIC in the assay on Enterococcus faecium worked out at 1.56 µg/mL (≈ 2.07 µM); against Streptococcus agalactiae it was 0.02 µg/mL (≈ 0.0265 µM); in the assay with Staphylococcus aureus it was 12.5 µg/mL (≈ 16.6 µM); with Micrococcus luteus, 0.78 µg/mL (≈ 1.04 µM); in assay [1], 12.5 µg/mL (≈ 16.6 µM).

On to `CC[C@H]1OC(=O)[C@H](C)[C@@H](OC2C[C@@](C)(OC)[C@@H](O)[C@H](C)O2)[C@H](C)[C@@H](OC2O[C@H](C)C[C@H](N(C)C3CCCCC3)[C@H]2O)[C@@](C)(OC)C[C@@H](C)C(=O)[C@H](C)[C@H]2N(CCc3ccc(Cl)cc3)C(=O)O[C@]12C` (some centres undefined), for which the MIC in the assay on Streptococcus equinus was 3.1 µg/mL (≈ 3.16 µM); in the assay on Enterococcus faecium it was 25 µg/mL (≈ 25.5 µM); in the assay on Streptococcus agalactiae, 12.5 µg/mL (≈ 12.8 µM); in the assay with Staphylococcus aureus, > 100 µg/mL; with Streptococcus pyogenes it was 0.78 µg/mL (≈ 0.796 µM); in the assay with Micrococcus luteus, 12.5 µg/mL (≈ 12.8 µM). In addition, the MIC in assay [1] is > 100 µg/mL. In assay [2], the inhibition constant (Ki) was 204 nM.

For `CC[C@H]1OC(=O)[C@H](C)[C@@H](OC(=O)N2C(=O)OC[C@@H]2C)[C@H](C)[C@@H](OC2O[C@H](C)C[C@H](N(C)CC3CC3)[C@H]2O)[C@@](C)(OC)C[C@@H](C)C(=O)[C@H](C)[C@H]2N(CCc3ccc(Cl)cc3)C(=O)O[C@]12C` (some centres undefined), the minimal inhibitory concentration (MIC) in the assay with Streptococcus equinus was determined as 0.78 µg/mL (≈ 0.847 µM); against Enterococcus faecium it was 3.1 µg/mL (≈ 3.37 µM); against Streptococcus agalactiae, 1.56 µg/mL (≈ 1.69 µM); against Staphylococcus aureus, 100 µg/mL (≈ 109 µM); in the assay on Streptococcus pyogenes it was 0.78 µg/mL (≈ 0.847 µM); in the assay with Micrococcus luteus, 12.5 µg/mL (≈ 13.6 µM). Also, the minimum inhibitory concentration (MIC) in assay [1] is > 100 µg/mL. The molecule also gave an inhibition constant (Ki) in assay [2] of 18.6 nM.

Consider `CC[C@H]1OC(=O)[C@H](C)[C@@H](O[C@H]2C[C@@](C)(OC)[C@@H](O)[C@H](C)O2)[C@H](C)[C@@H](O[C@@H]2O[C@H](C)C[C@H](N(C)C)[C@H]2O)[C@](C)(O)C[C@@H](C)C(=O)[C@H](C)[C@@H](O)[C@]1(C)O` [ERYTHROMYCIN], for which the minimal inhibitory concentration (MIC) against Streptococcus equinus amounted to 0.05 µg/mL (≈ 0.0681 µM); with Enterococcus faecium, 0.05 µg/mL (≈ 0.0681 µM); in the assay with Streptococcus agalactiae it was 0.05 µg/mL (≈ 0.0681 µM); with Staphylococcus aureus it was 0.2 µg/mL (≈ 0.273 µM); in the assay on Streptococcus pyogenes it was 0.05 µg/mL (≈ 0.0681 µM); against Micrococcus luteus, 0.02 µg/mL (≈ 0.0273 µM). In assay [1], this molecule had a minimal inhibitory concentration (MIC) of 0.2 µg/mL (≈ 0.273 µM).

Regarding `CC[C@H]1OC(=O)[C@H](C)[C@@H](OC(=O)N2C(=O)OC[C@@H]2C)[C@H](C)[C@@H](OC2O[C@H](C)C[C@H](N(C)C(C)C)[C@H]2O)[C@@](C)(OC)C[C@@H](C)C(=O)[C@H](C)[C@H]2N(CCc3ccc(Cl)cc3)C(=O)O[C@]12C` (some centres undefined), the minimum inhibitory concentration (MIC) in the assay on Streptococcus equinus stood at 0.1 µg/mL (≈ 0.11 µM); against Enterococcus faecium, 0.78 µg/mL (≈ 0.859 µM); with Staphylococcus aureus, 25 µg/mL (≈ 27.5 µM); against Streptococcus pyogenes, 0.02 µg/mL (≈ 0.022 µM); in the assay with Micrococcus luteus, 0.78 µg/mL (≈ 0.859 µM); in assay [1] it was 25 µg/mL (≈ 27.5 µM).

As for `CC[C@H]1OC(=O)[C@H](C)[C@@H](OC(=O)N2C(=O)OC[C@@H]2C)[C@H](C)[C@@H](O[C@@H]2O[C@H](C)C[C@H](N(C)CC3CC3)[C@H]2O)[C@@](C)(OC)C[C@@H](C)C(=O)[C@H](C)[C@H]2N(CCc3ccc(Cl)c(Cl)c3)C(=O)O[C@]12C`, the MIC is 0.78 µg/mL (≈ 0.817 µM) in the assay with Streptococcus equinus; 3.1 µg/mL (≈ 3.25 µM) with Enterococcus faecium; 0.78 µg/mL (≈ 0.817 µM) in the assay with Streptococcus agalactiae; > 100 µg/mL with Staphylococcus aureus; 0.78 µg/mL (≈ 0.817 µM) against Streptococcus pyogenes; 3.1 µg/mL (≈ 3.25 µM) with Micrococcus luteus. Also, in assay [1], the minimum inhibitory concentration (MIC) was > 100 µg/mL.

Turning to `CC[C@H]1OC(=O)[C@H](C)[C@@H](OC2C[C@@](C)(OC)[C@@H](O)[C@H](C)O2)[C@H](C)[C@@H](OC2O[C@H](C)C[C@H](N(C)CC3CC3)[C@H]2O)[C@@](C)(OC)C[C@@H](C)C(=O)[C@H](C)[C@H]2N(CCc3ccc(Cl)cc3)C(=O)O[C@]12C` (some centres undefined), the minimal inhibitory concentration (MIC) against Enterococcus faecium is 1.56 µg/mL (≈ 1.64 µM); with Streptococcus agalactiae it was 1.56 µg/mL (≈ 1.64 µM); against Staphylococcus aureus, > 100 µg/mL; in assay [1], > 100 µg/mL. This molecule also showed a Ki in assay [2] of 13.2 nM.

For the origin of these results see ChEMBL document CHEMBL1147642, “Elimination of antibacterial activities of non-peptide luteinizing hormone-releasing hormone (LHRH) antagonists derived from erythromycin A” (Bioorg Med Chem Lett, 2004).
